What all share (assay type): functional
The test system of test [1] is Enterococcus faecalis. Nature of the test: In vitro antibacterial activity against Enterococcus faecalis (vancomycin, methicillin and ciprofloxacin resistant), expressed as minimum inhibitory concentration (MIC).
The test system of a further test is Staphylococcus aureus. Nature of the test: In vitro antibacterial activity against methicillin-resistant Staphylococcus aureus (MRSA), expressed as minimum inhibitory concentration (MIC).
For test [2], the system named is Enterococcus faecium. Nature of the test: In vitro antibacterial activity against Enterococcus faecium (vancomycin, methicillin and ciprofloxacin resistant), expressed as minimum inhibitory concentration (MIC).
In a further test the test system is Escherichia coli. Description: In vitro antibacterial activity against Escherichia coli, expressed as minimum inhibitory concentration (MIC).
A further test concerns Pasteurella multocida. Nature of the test: In vitro antibacterial activity against Pasteurella multocida, expressed as minimum inhibitory concentration (MIC).
Test [3] deals with Mus musculus. Nature of the test: In vivo activity against Pasteurella multocida in mice. The settings on record: read-out: PD50.
Test [4] concerns Enterococcus faecium. Description: Protective dose against both MRSA and vancomycin-resistant Enterococcus faecium. Conditions: read-out: PD50.
Test [5] concerns Mus musculus. Nature of the test: In vivo activity against Pasteurella multocida in mice after subcutaneous administration. The settings on record: sc, read-out: PD50.
In test [6] the test system is Mus musculus. Description: In vivo activity against Escherichia coli in mice after subcutaneous administration; Range is 8-10 mg/kg. The settings on record: sc, read-out: PD50.
Test [7] has as its system Mus musculus. Nature of the test: In vivo activity against Pasteurella multocida in mice after subcutaneous administration; Range is 8-10 mg/kg. The settings on record: sc, read-out: PD50.
Test [8] concerns Enterococcus faecalis. Description: In vitro antibacterial activity against E. faecalis( vancomycin, methicillin and ciprofloxacin resistant), expressed as minimum inhibitory concentration (MIC).

Converted amounts (≈) assume the structure as drawn. *1 amine or outer side, *2 acyl side, *3 side chain or, on linkers, in order; H or OH if unused. Where a SMILES comes first, the peptide text is derived from it. Bridges are numbered along the chain shown (N, C = ends). Side-chain parts run from the residue outwards. [ ]: non-standard residue; d: D form. The star is where a group is joined. ξ: configuration not given here. NH(4-cHex-phenyl) = c1cc(C2CCCCC2)ccc1N*; X4 = NC1=NCCC([C@H](N[*:1])C(=O)[*:2])N1; ΔAla(Z-3-ureido) = NC(=O)N/C=C(\N)C(=O)O; ΔDap(Z) = O=C(/C(=C/N[*:3])N[*:1])[*:2]; X6 = c1ccc(Cc2ccc(N*)cc2)cc1; β3hOrn = NCCC[C@H](N)CC(=O)*; X7 = c1cc(N2CCCCC2)ccc1N*; Dap = NC[C@H](N)C(=O)O; CO = O=C([*:1])[*:2]; X5 = Clc1cc(N*)ccc1I; ξDap = NCC(N)C(=O)O

The values below come from ChEMBL document CHEMBL1129919, “Cyclic homopentapeptides 1. Analogs of tuberactinomycins and capreomycin with activity against vancomycin-resistant enterococci and Pasteurella” (1997).

For orientation: MIC means the lowest concentration found to suppress growth. Read a high MIC as a need for much substance. For `C[C@@H]1NC(=O)C(N)CNC(=O)[C@H](C2CCN=C(N)N2)NC(=O)/C(=C/NC(=O)Nc2ccc(Cc3ccccc3)cc2)NC(=O)[C@H](CNC(=O)C[C@@H](N)CCCN)NC1=O.NCCC[C@H](N)CC(=O)NC[C@@H]1NC(=O)[C@H](CO)NC(=O)C(N)CNC(=O)[C@H](C2CCN=C(N)N2)NC(=O)/C(=C/NC(=O)Nc2ccc(Cc3ccccc3)cc2)NC1=O` (stereo partly drawn) (H-[ξDap]S[Dap](β3hOrn)[ΔDap(Z)]([CO-X6])[X4]; lactam 1-C), the MIC against Enterococcus faecalis [1] was 6.25 µg/mL; in the test with Staphylococcus aureus, 1.56 µg/mL; against Enterococcus faecium [2], 3.12 µg/mL; in the test on Escherichia coli it was 12.5 µg/mL; against Pasteurella multocida, 0.78 µg/mL.
On to `C[C@@H]1NC(=O)C(N)CNC(=O)[C@H](C2CCN=C(N)N2)NC(=O)C(CNC(=O)Nc2ccc(I)c(Cl)c2)NC(=O)[C@H](CNC(=O)C[C@@H](N)CCCN)NC1=O.NCCC[C@H](N)CC(=O)NC[C@@H]1NC(=O)[C@H](CO)NC(=O)C(N)CNC(=O)[C@H](C2CCN=C(N)N2)NC(=O)C(CNC(=O)Nc2ccc(I)c(Cl)c2)NC1=O` (stereo partly drawn) (H-[ξDap]S[Dap](β3hOrn)[ξDap]([CO-X5])[X4]; lactam 1-C), for which the MIC against Enterococcus faecalis [1] worked out at 50 µg/mL; with Staphylococcus aureus, 3.12 µg/mL; against Enterococcus faecium [2], 12.5 µg/mL; in the test on Escherichia coli it was 6.25 µg/mL; with Pasteurella multocida, 0.78 µg/mL. Further, in the test with Mus musculus [3], the ED50 is 7 mg/kg.
For the molecule `NCCC[C@H](N)CC(=O)NC[C@@H]1NC(=O)[C@H](CO)NC(=O)C(N)CNC(=O)[C@H](C2CCN=C(N)N2)NC(=O)/C(=C/NC(=O)Nc2cc(Cl)c(Cl)c(Cl)c2)NC1=O` (stereo partly drawn), the MIC is 3.12 µg/mL (≈ 3.68 µM) in the test on Enterococcus faecalis [1]; 0.78 µg/mL (≈ 0.92 µM) in the test on Staphylococcus aureus; 1.56 µg/mL (≈ 1.84 µM) in the test with Enterococcus faecium [2]; 12.5 µg/mL (≈ 14.7 µM) in the test on Escherichia coli; 0.2 µg/mL (≈ 0.236 µM) in the test on Pasteurella multocida. Moreover, the ED50 turned out to be 3 mg/kg in the test on Enterococcus faecium [4] and 4 mg/kg in the test on Mus musculus [3].
As for `CN[C@H](CC(C)C)C(=O)N[C@H]1C(=O)N[C@@H](CC(N)=O)C(=O)N[C@H]2C(=O)N[C@H]3C(=O)N[C@H](C(=O)N[C@H](C(=O)O)c4cc(O)cc(O)c4-c4cc3ccc4O)[C@H](O)c3ccc(c(Cl)c3)Oc3cc2cc(c3O[C@@H]2O[C@H](CO)[C@@H](O)[C@H](O)[C@H]2O[C@H]2C[C@](C)(N)[C@H](O)[C@H](C)O2)Oc2ccc(cc2Cl)[C@H]1O` [VANCOMYCIN], the minimum inhibitory concentration (MIC) in the test on Enterococcus faecalis [1] is above 100 µg/mL; against Staphylococcus aureus, 0.78 µg/mL (≈ 0.538 µM); in the test on Enterococcus faecium [2] it was above 100 µg/mL.
Take `C[C@@H]1NC(=O)C(N)CNC(=O)[C@H](C2CCN=C(N)N2)NC(=O)/C(=C/Nc2nc(-c3ccc(Br)cc3)cs2)NC(=O)[C@H](CNC(=O)C[C@@H](N)CCCN)NC1=O.NCCC[C@H](N)CC(=O)NC[C@@H]1NC(=O)[C@H](CO)NC(=O)C(N)CNC(=O)[C@H](C2CCN=C(N)N2)NC(=O)/C(=C/Nc2nc(-c3ccc(Br)cc3)cs2)NC1=O` (stereo partly drawn): the MIC against Enterococcus faecalis [1] was determined as 50 µg/mL; against Staphylococcus aureus, 12.5 µg/mL; against Enterococcus faecium [2], 12.5 µg/mL; with Escherichia coli, 100 µg/mL; against Pasteurella multocida, 3.13 µg/mL.
For `C[C@@H]1NC(=O)C(N)CNC(=O)[C@H](C2CCN=C(N)N2)NC(=O)/C(=C/Nc2ccc(C3CCCCC3)cc2)NC(=O)[C@H](CNC(=O)C[C@@H](N)CCCN)NC1=O.NCCC[C@H](N)CC(=O)NC[C@@H]1NC(=O)[C@H](CO)NC(=O)C(N)CNC(=O)[C@H](C2CCN=C(N)N2)NC(=O)/C(=C/Nc2ccc(C3CCCCC3)cc2)NC1=O` (stereo partly drawn), the ED50 in the test on Mus musculus [5] amounted to 2 mg/kg. Also, the minimal inhibitory concentration (MIC) with Enterococcus faecalis [1] came out at 12.5 µg/mL; against Staphylococcus aureus, 1.56 µg/mL; in the test on Enterococcus faecium [2], 6.25 µg/mL; in the test with Escherichia coli, 6.25 µg/mL; with Pasteurella multocida, 0.2 µg/mL.
As to `NCCC[C@H](N)CC(=O)NC1CNC(=O)[C@H](C2C[C@@H](O)N=C(N)N2)NC(=O)/C(=C/Nc2ccc(Cl)c(Cl)c2)NC(=O)[C@H](CO)NC(=O)[C@H](CO)NC1=O` (stereo partly drawn), the ED50 with Mus musculus [6] and in the test with Mus musculus [7] was 10 mg/kg each time. Besides, the MIC came to 50 µg/mL (≈ 63.5 µM) in the test on Enterococcus faecalis [1]; 12.5 µg/mL (≈ 15.9 µM) against Staphylococcus aureus; 25 µg/mL (≈ 31.7 µM) in the test on Enterococcus faecium [2]; 12.5 µg/mL (≈ 15.9 µM) in the test on Escherichia coli; 0.78 µg/mL (≈ 0.99 µM) in the test with Pasteurella multocida.
In the case of `C[C@@H]1NC(=O)C(N)CNC(=O)[C@H](C2CCN=C(N)N2)NC(=O)/C(=C/Nc2ccc(Cl)c(Cl)c2)NC(=O)[C@H](CNC(=O)C[C@@H](N)CCCN)NC1=O.NCCC[C@H](N)CC(=O)NC[C@@H]1NC(=O)[C@H](CO)NC(=O)C(N)CNC(=O)[C@H](C2CCN=C(N)N2)NC(=O)/C(=C/Nc2ccc(Cl)c(Cl)c2)NC1=O` (stereo partly drawn), in the test with Mus musculus [5], the ED50 was 6 mg/kg. Besides, the MIC against Enterococcus faecalis [1] came to 25 µg/mL; against Staphylococcus aureus it was 0.78 µg/mL; with Enterococcus faecium [2] it was 12.5 µg/mL; with Escherichia coli, 6.25 µg/mL; against Pasteurella multocida, 0.39 µg/mL.
Consider `C[C@@H]1NC(=O)C(N)CNC(=O)[C@H](C2CCN=C(N)N2)NC(=O)/C(=C/NC(N)=O)NC(=O)[C@H](CNC(=O)C[C@@H](N)CCCN)NC1=O.NCCC[C@H](N)CC(=O)NC[C@@H]1NC(=O)[C@H](CO)NC(=O)C(N)CNC(=O)[C@H](C2CCN=C(N)N2)NC(=O)/C(=C/NC(N)=O)NC1=O` (stereo partly drawn) (H-[ξDap]S[Dap](β3hOrn)[ΔAla(Z-3-ureido)][X4]; lactam 1-C), for which the minimum inhibitory concentration (MIC) was 100 µg/mL with Staphylococcus aureus; above 1000 µg/mL in the test on Enterococcus faecium [2]; 200 µg/mL against Escherichia coli; 50 µg/mL against Pasteurella multocida; above 1000 µg/mL in the test on Enterococcus faecalis [8].
Turning to `NCCC[C@H](N)CC(=O)NC[C@@H]1NC(=O)[C@H](CO)NC(=O)C(N)CNC(=O)[C@H](C2CCN=C(N)N2)NC(=O)/C(=C/NC(=O)Nc2ccc(N3CCCCC3)cc2)NC1=O` (stereo partly drawn) (H-[ξDap]S[Dap](β3hOrn)[ΔDap(Z)]([CO-X7])[X4]; lactam 1-C), the MIC was 100 µg/mL (≈ 121 µM) with Enterococcus faecalis [1]; 3.12 µg/mL (≈ 3.77 µM) in the test with Staphylococcus aureus; 100 µg/mL (≈ 121 µM) against Enterococcus faecium [2]; 50 µg/mL (≈ 60.4 µM) against Escherichia coli; 1.56 µg/mL (≈ 1.88 µM) in the test on Pasteurella multocida.
Regarding `NCC[C@@H](O)[C@H](N)CC(=O)NC1CNC(=O)[C@@H](C2CCN=C(N)N2)NC(=O)/C(=C/NC(=O)Nc2ccc(C3CCCC3)cc2Cl)NC(=O)[C@@H](CO)NC(=O)[C@@H](CO)NC1=O` (stereo partly drawn), the MIC came to 6.25 µg/mL (≈ 7.23 µM) in the test on Enterococcus faecalis [1], 3.12 µg/mL (≈ 3.61 µM) in the test on Staphylococcus aureus and 3.12 µg/mL (≈ 3.61 µM) with Enterococcus faecium [2].
Turning to `NCCC[C@H](N)CC(=O)NC[C@@H]1NC(=O)[C@H](CO)NC(=O)C(N)CNC(=O)[C@H](C2CCN=C(N)N2)NC(=O)/C(=C/NC(=O)Nc2ccc(C3CCCCC3)cc2)NC1=O` (stereo partly drawn) (H-[ξDap]S[Dap](β3hOrn)[ΔDap(Z)]([CO-NH(4-cHex-phenyl)])[X4]; lactam 1-C), the MIC with Enterococcus faecalis [1] worked out at 3.12 µg/mL (≈ 3.77 µM); with Staphylococcus aureus it was 1.56 µg/mL (≈ 1.89 µM); against Enterococcus faecium [2] it was 1.56 µg/mL (≈ 1.89 µM); in the test on Escherichia coli, 25 µg/mL (≈ 30.2 µM); against Pasteurella multocida, 0.39 µg/mL (≈ 0.472 µM).
